# From patent US4170640A, “Antibiotic mixtures” (priority 1977, dated 1979)
# Assays:
# [1] = system: E. coli B; assay: Amplification of the antibacterial (cell-killing) activity of phleomycin in stationary phase cultures, viable cell counts; type: cell-based; settings: concentration of optimum activity after phleomycin pretreatment (2 μg/ml, 30 min, 37°); 120 min treatment
# Experimental: The ability of the compounds to potentiate the cell-killing effects of phleomycin was measured by the following procedure. Stationary phase cultures of E. coli B, with or without the compounds under test, were resuspended in growth medium containing phleomycin (2 μg/ml) and incubated at 37° for 30 minutes. The cells were then membrane filtered (0.45 μm pore size; 2.5 cms), washed with growth medium (20 μg/ml) and resuspended in growth medium (20 μg/ml) at 37° C. containing various concentrations, between 10^-10 M and 10^-2 M, of the compound under test. As a control, bacteria were exposed to the same range of concentrations of each compound but without the phleomycin pretreatment. To determine viable cell numbers aliquots were taken from each cell suspension after 120 minutes treatments, plated on agar medium and incubated overnight at 37° C. All operations with amplifying agents were carried out in near dark conditions.
# Compounds were designated as active when the increase in activity with the combined treatment was greater than could be explained by the effects of the two compounds when administered separately.
# [2] = system: E. coli B; assay: as above; type: cell-based; settings: envisaged from present studies; phleomycin at about 1 mg/l (or mg/kg)
# [3] = system: Walker rat carcinoma 256; assay: Survival of rats bearing Walker rat carcinoma 256 ascites tumour, treated with phleomycin plus amplifier; type: in vivo, Sprague Dawley rats; settings: for amplification of the activity of phleomycin (survival of tumour-bearing rats): doses as in Table 2
# Experimental: Walker rat carcinoma 256 as the ascites form was passaged in female Sprague Dawley rats. […] Intraperitoneal injections of 0.1 ml (10^6 viable cells) of the suspension were then made into test groups of 6-8 male Sprague Dawley rats.
# Phleomycin dissolved in phosphate-buffered saline was given to animals in the test groups as 0.1 ml intraperitoneal injections twice daily; each injection was followed by a 0.1 ml intraperitoneal injection of the prospective amplifier. The treatments were given for 5-10 days, at varying concentrations of the phleomycin and amplifier.
# The method of evaluating the effectiveness of the various treatments was based on those used in the screening programme of the Drug Evaluation Branch, National Cancer Institute, National Institute of Health, Bethesda, Maryland, U.S.A. (Cancer Chemotherapy Reports, Vol. 3, No. 2, September 1972). Thus the effectiveness of the drug treatment was measured by the increased survival time, measured in days, of the treated animals over control ones which received no drugs. Dead animals were counted daily, and median survival times (MST) calculated for all groups. […] The ratios (test group median survival time) divided by (control group median survival time)× 100 (T/C) were calculated for all the test groups.
# [4] = 4,4'-bis(trimethylammonio)diphenylmethane dichloride 270 MKD alone (phleomycin 0), ×2 daily
# [5] = phleomycin 4 MKD + 4,4'-bis(trimethylammonio)diphenylmethane dichloride 270 MKD, i.p. ×2 daily
# [6] = Auramin 0 7.6 MKD alone (phleomycin 0), ×2 daily
# [7] = phleomycin 8 MKD + Auramin 0 7.6 MKD, i.p. ×2 daily
# [8] = Brilliant Green 640 MKD alone (phleomycin 0), ×2 daily
# [9] = phleomycin 5 MKD + Brilliant Green 640 MKD, i.p. ×2 daily
# [10] = phleomycin 10 MKD + Brilliant Green 640 MKD, i.p. ×2 daily
# [11] = phleomycin 20 MKD + Brilliant Green 640 MKD, i.p. ×2 daily
# [12] = Crystal Violet 0.5 MKD alone (phleomycin 0), twice daily from days 2 to 10
# [13] = phleomycin 4 MKD + Crystal Violet 0.5 MKD, i.p. twice daily from days 2 to 10
# [14] = Malachite Green 52 MKD alone (phleomycin 0), ×2 daily
# [15] = phleomycin 8 MKD + Malachite Green 52 MKD, i.p. ×2 daily
# [16] = Neutral Red 20 MKD alone (phleomycin 0), ×2 daily
# [17] = phleomycin 8 MKD + Neutral Red 20 MKD, i.p. ×2 daily
# [18] = phleomycin 16 MKD + Neutral Red 20 MKD, i.p. ×2 daily
# [19] = phleomycin 32 MKD + Neutral Red 20 MKD, i.p. ×2 daily
compound,measurement,setting,value
"C[N+](C)(C)c1ccc2cc3ccc([N+](C)(C)C)cc3c(-c3c4cc([N+](C)(C)C)ccc4cc4ccc([N+](C)(C)C)cc34)c2c1.[Cl-].[Cl-].[Cl-].[Cl-] [2,2', 7,7'-tetrakis(trimethylammonio)-9,9'-dianthracene tetrachloride]",Optimum Concentration tested,[1],50 µM
Nc1cc2nc3ccccc3oc-2cc1=O [2-aminophenoxazone],Optimum Concentration tested,[1],25 µM
CC[n+]1c(C=Cc2ccc(N(C)C)cc2)ccc2ccccc21.[Cl-] [2-p-dimethylaminostyryl-N-ethyl-quinolinium chloride],Optimum Concentration tested,[1],0.3 µM
"C[N+](C)(C)c1ccc(-c2ccc([N+](C)(C)C)cc2)cc1.[Cl-].[Cl-] [4,4'-bis(trimethylammonio)diphenyl-dichloride]",Optimum Concentration tested,[1],310 µM
"C[N+](C)(C)c1ccc(Cc2ccc([N+](C)(C)C)cc2)cc1 [4,4'-bis(trimethylammonio)diphenylmethane]",adequate concentration of amplifier in conjunction with phleomycin,[2],10^-3 molar
same,Optimum Concentration tested,[1],29 µM
same,MST,[3]; [4],8.0 days
same,T/C,[3]; [4],100
same,amplification of the activity of phleomycin (survival of tumour-bearing rats),[3],amplified the activity of phleomycin
same,MST,[3]; [5],10.0 days
same,T/C,[3]; [5],125
CN(C)c1ccc(C(=N)c2ccc(N(C)C)cc2)cc1.Cl [Auramin O],Optimum Concentration tested,[1],3.3 µM
same,MST,[3]; [6],9.5 days
same,T/C,[3]; [6],95
same,amplification of the activity of phleomycin (survival of tumour-bearing rats),[3],amplified the activity of phleomycin
same,MST,[3]; [7],18 days
same,T/C,[3]; [7],> 180
CCN(CC)c1ccc(C(=C2C=CC(=[N+](CC)CC)C=C2)c2ccccc2)cc1.O=S(=O)([O-])O [Brilliant Green],Optimum Concentration tested,[1],9.6 µM
same,MST,[3]; [8],9 days
same,T/C,[3]; [8],112
same,amplification of the activity of phleomycin (survival of tumour-bearing rats),[3],amplified the activity of phleomycin
same,MST,[3]; [9],10 days
same,T/C,[3]; [9],125
same,MST,[3]; [10],11 days
same,T/C,[3]; [10],138
same,MST,[3]; [11],11 days
same,T/C,[3]; [11],138
CN(C)c1ccc(C(=C2C=CC(=[N+](C)C)C=C2)c2ccc(N(C)C)cc2)cc1 [Crystal Violet],adequate concentration of amplifier in conjunction with phleomycin,[2],10^-7 molar
same,Optimum Concentration tested,[1],2.4 µM
same,MST,[3]; [12],12.5 days
same,T/C,[3]; [12],104
same,amplification of the activity of phleomycin (survival of tumour-bearing rats),[3],amplified the activity of phleomycin
same,MST,[3]; [13],> 30 days
same,T/C,[3]; [13],250
CC[n+]1c(-c2ccccc2)c2cc(N)ccc2c2ccc(N)cc21.[Br-] [Ethidium bromide],adequate concentration of amplifier in conjunction with phleomycin,[2],10^-4 molar
same,Optimum Concentration tested,[1],13 µM
CN(C)c1ccc(C(=C2C=CC(=[N+](C)C)C=C2)c2ccccc2)cc1.[Cl-] [Malachite green],Optimum Concentration tested,[1],3 µM
same,MST,[3]; [14],8 days
same,T/C,[3]; [14],100
same,amplification of the activity of phleomycin (survival of tumour-bearing rats),[3],amplified the activity of phleomycin
same,MST,[3]; [15],16.5 days
same,T/C,[3]; [15],206
CN(C)c1ccc2nc3ccc(=[N+](C)C)cc-3sc2c1.[Cl-] [Methylene Blue],Optimum Concentration tested,[1],13 µM
Cc1cc2nc3ccc(N(C)C)cc3nc2cc1N.Cl [Neutral Red],Optimum Concentration tested,[1],33 µM
same,enhancement of the ability of phleomycin to prolong the survival of rats carrying tumours,"[3]; Neutral Red 20 μg/kg/day with phleomycin at 8, 16 or 32 micrograms/kg/day",active
same,MST,[3]; [16],11.0 days
same,T/C,[3]; [16],79
same,MST,[3]; [17],20 days
same,T/C,[3]; [17],143
same,MST,[3]; [18],> 30 days
same,T/C,[3]; [18],> 214
same,MST,[3]; [19],> 30 days
same,T/C,[3]; [19],> 214
CC[N+](CC)=c1ccc2nc3c(cc(N)c4ccccc43)oc-2c1 [Nile Blue],Optimum Concentration tested,[1],2.7 µM
CN(C)c1ccc2cc3ccc(=[N+](C)C)cc-3oc2c1.[Cl-] [Pyronin Y],Optimum Concentration tested,[1],170 µM
CCN(CC)CCCC(C)Nc1c2ccc(Cl)cc2nc2ccc(OC)cc12 (stereo not shown) [Quinacrine],Optimum Concentration tested,[1],39 µM
CCNc1ccc2c(-c3ccccc3C(=O)O)c3ccc(=[N+](CC)CC)cc-3oc2c1.[Cl-] [Rhodamine G],Optimum Concentration tested,[1],120 µM
Cc1cc2nc3cc(C)c(N)cc3[n+](-c3ccccc3)c2cc1N.[Cl-] [Safranin T],Optimum Concentration tested,[1],14 µM
Cc1cc2nc3ccc(N(C)C)cc3[s+]c2cc1N.[Cl-] [Toluidine Blue],Optimum Concentration tested,[1],16 µM
Brilliant Cresol Blue,Optimum Concentration tested,[1],340 µM
Methyl Violet,Optimum Concentration tested,[1],1.6 µM
